Measurements taken from US7910593B2, “Water-soluble prodrugs” (Chugai Seiyaku Kabushiki Kaisha, priority 2004, dated 2011).
Where a name gives a salt, the structure may show the parent alone. Read-outs that look alike come from different tables or passages of the source.

Experiments:
[1] = Test Example 3: solubility in distilled water; format: physicochemical
From the text: The solubility of the water-soluble prodrugs obtained in the Examples (compounds 1A to 8A) in distilled water was compared to the solubility of (9S)-9-ethyl-9-hydroxy-1-pentyl-1H,12H-pyrano[3″,4″:6′,7′]indolizino[1′,2′:6,5]pyrido[4,3,2-de]quinazoline-10,13 (9H,15H)-dione (representative compound in Patent document 2: reference compound 1).

[2] = Comparative Test Example 1: conversion of reference compound 2 in mouse sera; format: in vitro ADME; conditions: FIG. 7
Protocol: (§1) Compound 2A was incubated at 37° C. at a concentration of 50 μM in sera of humans, mice, monkeys, and dogs. Incubation was terminated at a given time (0, 30, 60, 120, and 360 minutes), and the samples were analyzed by HPLC after deproteinization treatments.
(§2) Conditions for the HPLC analysis are as follows: • HPLC conditions • Column: Develosil C30-UG-3, 3 μm, 50×4.6 mm I.D • Column Temperature: constant temperature at approximately 25° C. • Mobile phase: A: 10 mM phosphate buffer (pH4.7) • B: acetonitrile • /B (min): 90/10(0)→90/10(0.4)→40/60(6)→2/98(8)→90/10(9)→90/10(15)
(§3) Flow rate: 1.0 mL/min • Detection: photodiode array detector, detection wavelength 350 nm • Amount injected: 30 μL
(§4) Similar to Examination 1, the percent changes of (9S)-9-ethyl-9-(tryptophyl-γ-glutamyloxy)-1-pentyl-1H,12H-pyrano[3″,4″:6′,7′]indolizino[1′,2′:6,5]pyrido[4,3,2-de]quinazoline-10,13(9H,15H)-dione [representative compound (Q) in Patent document 1: reference compound 2] being converted in the lactone form and the carboxylate form over time in human and mouse sera were determined.

[3] = Comparative Test Example 1: conversion of reference compound 2 in human sera; format: in vitro ADME; conditions: FIG. 6
Protocol: as §1, §2, §3, §4

[4] = system: human colon cancer cell line HCT116; assay: Test Example 4: antitumor effect in HCT116 tumor-bearing nude mice; format: in vivo, BALB/c nude mice; conditions: once per week for three weeks
Protocol: Antitumor effects were determined for representative examples of the group of compounds of the present invention. Tumor-bearing mice were generated by subcutaneous transplantation of human colon cancer cell line HCT116 obtained from American Type Culture Collection (Virginia, USA) into the right flank of BALB/c nude mice purchased from Charles River Japan, and used for determination of antitumor effects.
After a one-week quarantine period, the purchased nude mice were subjected to subcutaneous transplantation of 5×10^6 HCT116 cells at their right flank. Mice with a tumor size reaching 200 mm^3 or so were subjected to the experiment.
The compounds were dissolved in 1 mM citric bufferes saline, pH 4, and administered intravenously. The administration was carried out once per week for three weeks, for a total of three administrations. The antitumor effect was determined as tumor growth inhibition (TGI) using the following equation. Tumor growth inhibition (TGI) (%)={(1−mean tumor volume change in the drug-treated group/mean tumor volume change in the control group)×100} The results are shown in Table 6.

[5] = distilled water, read-out: Solubility in distilled water

`CCCCCN1C=Nc2cccc3nc4c(c1c23)Cn1c-4cc2c(c1=O)COC(=O)[C@@]2(CC)OC(=O)CN(C)CCNC.Cl` [Compound 1A, (9S)-9-Ethyl-9-{[methyl-(2-methylamino-ethyl)-amino]-acetoxy}-1-pentyl-1H,12H-pyrano[3″,4″:6′,7′]indolizino[1′,2′:6,5]pyrido[4,3,2-de]quinazoline-10,13(9H,15H)-dione hydrochloride] gave a solubility [1, 5] of over 10000 µg/mL.
Work on `CCCCCN1C=Nc2cccc3nc4c(c1c23)Cn1c-4cc2c(c1=O)COC(=O)[C@]2(O)CC` [Reference compound 1, (9S)-9-ethyl-9-hydroxy-1-pentyl-1H,12H-pyrano[3″,4″:6′,7′]indolizino[1′,2′:6,5]pyrido[4,3,2-de]quinazoline-10,13 (9H,15H)-dione, reference compound] yielded a solubility ([1]; water) of under 10 µg/mL.
In the case of `CCCCCN1C=Nc2cccc3nc4c(c1c23)Cn1c-4cc2c(c1=O)COC(=O)[C@@]2(CC)OC(=O)CC[C@H](NC(=O)[C@@H](N)Cc1c[nH]c2ccccc12)C(=O)O` [reference compound 2, (9S)-9-ethyl-9-(tryptophyl-γ-glutamyloxy)-1-pentyl-1H,12H-pyrano[3″,4″:6′,7′]indolizino[1′,2′:6,5]pyrido[4,3,2-de]quinazoline-10,13(9H,15H)-dione], the “conversion rate and efficiency into the lactone form and the carboxylate form” value [2] is reported as “low” and the “conversion rate and efficiency into the lactone form and the carboxylate form” value [3] is reported as “low”.
Compound `CC[C@@]1(OC(=O)CN(C)C(=O)CN)C(=O)OCc2c1cc1n(c2=O)Cc2cc3ccccc3nc2-1.Cl` [Compound 5A, (aminoacetyl-methyl-amino)-acetic acid (S)-4-ethyl-3,13-dioxo-3,4,12,13-tetrahydro-1H-2-oxa-6,12a-diaza-dibenzo[b,h]fluoren-4-yl ester hydrochloride] has a solubility [1, 5] of over 10000 µg/mL.
Work on `CCCCCN1C=Nc2cccc3nc4c(c1c23)Cn1c-4cc2c(c1=O)COC(=O)[C@@]2(CC)OC(=O)CN(C)C(=O)CNC.Cl` [Compound 4A, (9S)-9-Ethyl-9-(sarcosyl-sarcosyloxy)-1-pentyl-1H,12H-pyrano[3″,4″:6′,7′]indolizino[1′,2′:6,5]pyrido[4,3,2-de]quinazoline-10,13(9H,15H)-dione hydrochloride] yielded a solubility [1, 5] of over 10000 µg/mL.
In the case of `CCCCCN1C=Nc2cccc3nc4c(c1c23)Cn1c-4cc2c(c1=O)COC(=O)[C@@]2(CC)OC(=O)OCCS(=O)(=O)CCN.Cl` [Compound 8A, (9S)-9-[2-(2-Aminoethanesulfonyl)ethoxycarbonyloxy]-9-ethyl-1-pentyl-1H,12H-pyrano[3″,4″: 6′,7′]indolizino[1′,2′:6,5]pyrido[4,3,2-de]quinazoline-10,13(9H,15H)-dione hydrochloride], the “TGI (%) on Day 21” value ([4]; 0.9 mg/kg intravenously) is reported as 41%, the “TGI (%) on Day 21” value ([4]; 1.9 mg/kg intravenously) is reported as 53% and the “TGI (%) on Day 21” value ([4]; 3.75 mg/kg intravenously) is reported as 55%. For the same compound, the “TGI (%) on Day 21” value ([4]; 7.5 mg/kg intravenously) was 61%, the “TGI (%) on Day 21” value ([4]; 15 mg/kg intravenously) was 78% and the “TGI (%) on Day 21” value ([4]; 30 mg/kg intravenously) was 96%. The “TGI (%) on Day 21” value ([4]; 60 mg/kg intravenously) was 106% and the solubility [1, 5] was over 10000 µg/mL.
In the case of `CCCCCN1C=Nc2cccc3nc4c(c1c23)Cn1c-4cc2c(c1=O)COC(=O)[C@@]2(CC)OC(=O)CN(C)CCN.Cl` [Compound 3A, (9S)-9-{[(2-Amino-ethyl)-methyl-amino]-acetoxy}-9-ethyl-1-pentyl-1H,12H-pyrano[3″,4″:6′,7′]indolizino[1′,2′:6,5]pyrido[4,3,2-de]quinazoline-10,13(9H,15H)-dione hydrochloride], the solubility [1, 5] is reported as over 10000 µg/mL.
`CCCCCN1C=Nc2cccc3nc4c(c1c23)Cn1c-4cc2c(c1=O)COC(=O)[C@@]2(CC)OC(=O)OCCS(=O)(=O)C[C@H](N)C(=O)OC` [Compound 6A, (9S)-9-{2-[(R-2-Amino-2-methoxycarbonyl)ethanesulfonyl]ethoxycarbonyloxy}-9-ethyl-1-pentyl-1H,12H-pyrano[3″,4″:6′,7′]indolizino[1′,2′:6,5]pyrido[4,3,2-de]quinazoline-10,13(9H,15H)-dione trifluoroacetic acid salt] gave a solubility [1, 5] of over 10000 µg/mL.
